Active and inactive are the calls of the source. The calls are words filed in the database; no cut-off is given here.
Assays:
Assay type in all cases: functional
CAKI-1 = assay: Cytotoxicity against human Caki1 cells at 10 uM after 48 hrs by SRB assay
[1] = Cytotoxicity against human RXF393 cells at 10 uM after 48 hrs by SRB assay; details: RXF 393, 48 h, read-out: GI
SN12C = assay: Cytotoxicity against human SN12C cells at 10 uM after 48 hrs by SRB assay; details: read-out: GI
TK-10 = assay: Cytotoxicity against human TK10 cells at 10 uM after 48 hrs by SRB assay
[2] = Cytotoxicity against human UO31 cells at 10 uM after 48 hrs by SRB assay; details: UO-31, 48 h, read-out: GI
[3] = Cytotoxicity against human DU145 cells at 10 uM after 48 hrs by SRB assay; details: DU-145, 48 h, read-out: GI
MCF7 = assay: Cytotoxicity against human MCF7 cells at 10 uM after 48 hrs by SRB assay; details: MCF7, 48 h, read-out: GI
MDA-MB-231 = assay: Cytotoxicity against human MDA-MB-231 cells at 10 uM after 48 hrs by SRB assay; details: MDA-MB-231, 48 h, read-out: GI
Hs-578T = assay: Cytotoxicity against human Hs 578T cells at 10 uM after 48 hrs by SRB assay
BT-549 = assay: Cytotoxicity against human BT549 cells at 10 uM after 48 hrs by SRB assay
T47D = assay: Cytotoxicity against human T47D cells at 10 uM after 48 hrs by SRB assay; details: read-out: GI
MDA-MB-468 = assay: Cytotoxicity against human MDA-MB-468 cells at 10 uM after 48 hrs by SRB assay; details: MDA-MB-468, 48 h, read-out: GI
CCRF-CEM = assay: Cytotoxicity against human CCRF-CEM cells at 10 uM after 48 hrs by SRB assay; details: read-out: GI
HL-60(TB) = assay: Cytotoxicity against human HL-60(TB) cells at 10 uM after 48 hrs by SRB assay
K562 = assay: Cytotoxicity against human K562 cells at 10 uM after 48 hrs by SRB assay; details: K562, 48 h, read-out: GI
[4] = Cytotoxicity against human RPMI8226 cells at 10 uM after 48 hrs by SRB assay; details: RPMI-8226, 48 h, read-out: GI
SR = assay: Cytotoxicity against human SR cells at 10 uM after 48 hrs by SRB assay; details: read-out: GI
A549 = assay: Cytotoxicity against human A549 cells at 10 uM after 48 hrs by SRB assay; details: A549, 48 h, read-out: GI
[5] = Cytotoxicity against human HOP62 cells at 10 uM after 48 hrs by SRB assay; details: HOP-62, 48 h, read-out: GI
[6] = Cytotoxicity against human HOP92 cells at 10 uM after 48 hrs by SRB assay; details: HOP-92, 48 h, read-out: GI
NCI-H226 = assay: Cytotoxicity against human NCI-H226 cells at 10 uM after 48 hrs by SRB assay; details: NCI-H226, 48 h, read-out: GI
NCI-H322M = assay: Cytotoxicity against human NCI-H322M cells at 10 uM after 48 hrs by SRB assay; details: read-out: GI
NCI-H460 = assay: Cytotoxicity against human NCI-H460 cells at 10 uM after 48 hrs by SRB assay; details: NCI-H460, 48 h, read-out: GI
NCI-H522 = assay: Cytotoxicity against human NCI-H522 cells at 10 uM after 48 hrs by SRB assay; details: NCI-H522, 48 h, read-out: GI
[7] = Cytotoxicity against human COLO205 cells at 10 uM after 48 hrs by SRB assay; details: COLO 205, 48 h, read-out: GI
HCC 2998 = assay: Cytotoxicity against human HCC2998 cells at 10 uM after 48 hrs by SRB assay
[8] = Cytotoxicity against human HCT116 cells at 10 uM after 48 hrs by SRB assay; details: HCT-116, 48 h, read-out: GI
HCT-15 = assay: Cytotoxicity against human HCT15 cells at 10 uM after 48 hrs by SRB assay
HT-29 = assay: Cytotoxicity against human HT-29 cells at 10 uM after 48 hrs by SRB assay; details: HT-29, 48 h, read-out: GI
KM12 = assay: Cytotoxicity against human KM12 cells at 10 uM after 48 hrs by SRB assay; details: KM12, 48 h, read-out: GI
SW-620 = assay: Cytotoxicity against human SW620 cells at 10 uM after 48 hrs by SRB assay
[9] = Cytotoxicity against human SF268 cells at 10 uM after 48 hrs by SRB assay; details: SF-268, 48 h, read-out: GI
[10] = Cytotoxicity against human SF295 cells at 10 uM after 48 hrs by SRB assay; details: SF-295, 48 h, read-out: GI
[11] = Cytotoxicity against human SF539 cells at 10 uM after 48 hrs by SRB assay; details: SF-539, 48 h, read-out: GI
SNB-19 = assay: Cytotoxicity against human SNB19 cells at 10 uM after 48 hrs by SRB assay
SNB-75 = assay: Cytotoxicity against human SNB75 cells at 10 uM after 48 hrs by SRB assay
U-251 = assay: Cytotoxicity against human U251 cells at 10 uM after 48 hrs by SRB assay; details: U-251, 48 h, read-out: GI
[12] = Cytotoxicity against human LOXIMVI cells at 10 uM after 48 hrs by SRB assay; details: LOX IMVI, read-out: GI
Malme-3M = assay: Cytotoxicity against human MALME-3M cells at 10 uM after 48 hrs by SRB assay
M14 = assay: Cytotoxicity against human M14 cells at 10 uM after 48 hrs by SRB assay; details: M14, 48 h, read-out: GI
MDA-MB-435 = assay: Cytotoxicity against human MDA-MB-435 cells at 10 uM after 48 hrs by SRB assay; details: MDA-MB-435, 48 h, read-out: GI
SK-MEL-2 = assay: Cytotoxicity against human SK-MEL-2 cells at 10 uM after 48 hrs by SRB assay
SK-MEL-28 = assay: Cytotoxicity against human SK-MEL-28 cells at 10 uM after 48 hrs by SRB assay
SK-MEL-5 = assay: Cytotoxicity against human SK-MEL-5 cells at 10 uM after 48 hrs by SRB assay; details: SK-MEL-5, 48 h, read-out: GI
[13] = Cytotoxicity against human UACC257 cells at 10 uM after 48 hrs by SRB assay; details: UACC-257, 48 h, read-out: GI
[14] = Cytotoxicity against human IGROV1 cells at 10 uM after 48 hrs by SRB assay; details: IGROV-1, 48 h, read-out: GI
[15] = Cytotoxicity against human OVCAR3 cells at 10 uM after 48 hrs by SRB assay; details: OVCAR-3, 48 h, read-out: GI
[16] = Cytotoxicity against human OVCAR4 cells at 10 uM after 48 hrs by SRB assay; details: OVCAR-4, 48 h, read-out: GI
OVCAR-5 = assay: Cytotoxicity against human OVCAR5 cells at 10 uM after 48 hrs by SRB assay
[17] = Cytotoxicity against human OVCAR8 cells at 10 uM after 48 hrs by SRB assay; details: OVCAR-8, 48 h, read-out: GI
[18] = Cytotoxicity against human NCI-ADR-RES cells at 10 uM after 48 hrs by SRB assay; details: read-out: GI
SK-OV-3 = assay: Cytotoxicity against human SKOV3 cells at 10 uM after 48 hrs by SRB assay
786-0 = assay: Cytotoxicity against human 786-0 cells at 10 uM after 48 hrs by SRB assay; details: 786-0, 48 h, read-out: GI
A498 = assay: Cytotoxicity against human A498 cells at 10 uM after 48 hrs by SRB assay; details: A498, 48 h, read-out: GI
ACHN = assay: Cytotoxicity against human ACHN cells at 10 uM after 48 hrs by SRB assay; details: read-out: GI

## Cc1nc2cc(Nc3nc(NCCO)nc(Nc4ccc(F)cc4)n3)ccc2n1Cc1ccccc1
CAKI-1
  growth inhibition (GI): inactive
[1]
  inhibition of growth at 10 µM: 9.82%
SN12C
  inhibition of growth at 10 µM: 8.89%
TK-10
  growth inhibition (GI): inactive
[2]
  inhibition of growth at 10 µM: 21.2%
[3]
  inhibition of growth at 10 µM: 11.5%
MCF7
  inhibition of growth at 10 µM: 8.72%
MDA-MB-231
  inhibition of growth at 10 µM: 19.7%
Hs-578T
  growth inhibition (GI): inactive
BT-549
  growth inhibition (GI): inactive
T47D
  inhibition of growth at 10 µM: 34.7%
MDA-MB-468
  inhibition of growth at 10 µM: 0.84%
CCRF-CEM
  inhibition of growth at 10 µM: 98.1%
HL-60(TB)
  growth inhibition (GI): Active
K562
  inhibition of growth at 10 µM: 80.8%
[4]
  inhibition of growth at 10 µM: 85.8%
SR
  inhibition of growth at 10 µM: 85.1%
A549
  inhibition of growth at 10 µM: 25.9%
[5]
  inhibition of growth at 10 µM: 6.05%
[6]
  inhibition of growth at 10 µM: 50.1%
NCI-H226
  inhibition of growth at 10 µM: 8.37%
NCI-H322M
  inhibition of growth at 10 µM: 1.09%
NCI-H460
  inhibition of growth at 10 µM: 16.5%
NCI-H522
  inhibition of growth at 10 µM: 14.3%
[7]
  inhibition of growth at 10 µM: 5.46%
HCC 2998
  growth inhibition (GI): inactive
[8]
  inhibition of growth at 10 µM: 23.4%
HCT-15
  growth inhibition (GI): inactive
HT-29
  inhibition of growth at 10 µM: 28.1%
KM12
  inhibition of growth at 10 µM: 19.7%
SW-620
  growth inhibition (GI): inactive
[9]
  inhibition of growth at 10 µM: 7.77%
[10]
  inhibition of growth at 10 µM: 13.6%
[11]
  inhibition of growth at 10 µM: 5.61%
SNB-19
  growth inhibition (GI): inactive
SNB-75
  growth inhibition (GI): inactive
U-251
  inhibition of growth at 10 µM: 13.7%
[12]
  inhibition of growth at 10 µM: 18.1%
Malme-3M
  growth inhibition (GI): inactive
M14
  inhibition of growth at 10 µM: 6.95%
MDA-MB-435
  inhibition of growth at 10 µM: 8.37%
SK-MEL-2
  growth inhibition (GI): inactive
SK-MEL-28
  growth inhibition (GI): inactive
SK-MEL-5
  inhibition of growth at 10 µM: 19.7%
[13]
  inhibition of growth at 10 µM: 1.2%
[14]
  inhibition of growth at 10 µM: 11.1%
[15]
  inhibition of growth at 10 µM: 9.84%
[16]
  inhibition of growth at 10 µM: 4.73%
OVCAR-5
  growth inhibition (GI): inactive
[17]
  inhibition of growth at 10 µM: 20%
[18]
  inhibition of growth at 10 µM: 2.28%
SK-OV-3
  growth inhibition (GI): inactive
786-0
  inhibition of growth at 10 µM: 5.33%
A498
  inhibition of growth at 10 µM: 33.8%
ACHN
  inhibition of growth at 10 µM: 1.72%

Source: ChEMBL document CHEMBL3745645, “Synthesis, in vitro antitumor activity, dihydrofolate reductase inhibition, DNA intercalation and structure-activity relationship studies of 1,3,5-triazine analogues” (Bioorg Med Chem Lett, 2016)
